Test results as given in US20180194762A1 (Pharmacyclics LLC, priority 2017, published 2018).

What was measured:
Assay type in all cases: biochemical
panel of kinases = target: T1, panel of kinases (Homo sapiens, UniProt P51813); test: Inhibition of a panel of kinases (in vitro HotSpot kinase assay, 33P-ATP, 1 μM ATP), other kinases; conditions: BMX wild-type, read-out: BMX-WT IC50
T1 sequence (P51813 1-675): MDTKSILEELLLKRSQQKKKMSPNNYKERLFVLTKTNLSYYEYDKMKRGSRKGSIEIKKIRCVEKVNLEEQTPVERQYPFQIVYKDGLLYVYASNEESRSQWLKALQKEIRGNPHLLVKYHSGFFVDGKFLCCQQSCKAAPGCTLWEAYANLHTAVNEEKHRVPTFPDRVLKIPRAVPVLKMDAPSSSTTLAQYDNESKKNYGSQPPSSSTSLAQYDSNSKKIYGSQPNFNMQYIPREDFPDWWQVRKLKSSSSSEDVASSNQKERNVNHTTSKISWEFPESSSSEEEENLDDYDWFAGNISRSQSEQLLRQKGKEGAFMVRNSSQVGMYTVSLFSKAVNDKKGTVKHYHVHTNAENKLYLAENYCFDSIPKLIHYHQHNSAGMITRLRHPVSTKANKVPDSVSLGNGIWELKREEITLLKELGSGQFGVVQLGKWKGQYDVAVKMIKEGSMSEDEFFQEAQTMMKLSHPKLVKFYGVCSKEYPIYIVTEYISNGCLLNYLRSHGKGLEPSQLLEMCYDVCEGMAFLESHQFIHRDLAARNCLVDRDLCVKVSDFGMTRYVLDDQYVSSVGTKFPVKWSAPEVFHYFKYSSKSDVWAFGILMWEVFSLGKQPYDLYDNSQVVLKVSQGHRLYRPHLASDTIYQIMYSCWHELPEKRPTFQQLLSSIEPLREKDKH
Procedure, shortened: (§1)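 Degree of kinase inhibition is determined in vitro using isolated enzymes, a matched substrate and radiolabelled ATP (1 μM).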

Btk = target: T2, Btk (Homo sapiens, UniProt Q06187); test: Btk in vitro inhibitory activity (one of Method A TR-FRET, Method B electrophoretic mobility shift, Method C radiometric filter binding); conditions: wild-type Btk; read-out: Btk-WT IC50
T2 construct: purified from insect cells as a full-length construct containing a N-terminal 6X-His tag; His6 (N); made in house; host or cells: insect cells (Method C)
Procedure, shortened: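 Method A: TR-FRET with 0.5 nM Btk at [ATP]=Km, EDTA-quenched, 665/615 nm ratio; Ki(app) converted to IC50. Method B: 1 nM full-length His6 human BTK, 1 μM FAM peptide, pH 7.5, mobility-shift product/sum ratio, 12-point 4-parameter fit. Method C: radiometric filter binding, 8 nM His-tagged BTK, 0.2 mg/mL poly-Glu-Tyr.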

TEC = target: T3, TEC (Homo sapiens, UniProt P42680); test: Inhibition of a panel of kinases (in vitro HotSpot kinase assay, 33P-ATP, 1 μM ATP); conditions: HotSpot kinase assay, 1 μM ATP
T3 sequence (P42680 1-631): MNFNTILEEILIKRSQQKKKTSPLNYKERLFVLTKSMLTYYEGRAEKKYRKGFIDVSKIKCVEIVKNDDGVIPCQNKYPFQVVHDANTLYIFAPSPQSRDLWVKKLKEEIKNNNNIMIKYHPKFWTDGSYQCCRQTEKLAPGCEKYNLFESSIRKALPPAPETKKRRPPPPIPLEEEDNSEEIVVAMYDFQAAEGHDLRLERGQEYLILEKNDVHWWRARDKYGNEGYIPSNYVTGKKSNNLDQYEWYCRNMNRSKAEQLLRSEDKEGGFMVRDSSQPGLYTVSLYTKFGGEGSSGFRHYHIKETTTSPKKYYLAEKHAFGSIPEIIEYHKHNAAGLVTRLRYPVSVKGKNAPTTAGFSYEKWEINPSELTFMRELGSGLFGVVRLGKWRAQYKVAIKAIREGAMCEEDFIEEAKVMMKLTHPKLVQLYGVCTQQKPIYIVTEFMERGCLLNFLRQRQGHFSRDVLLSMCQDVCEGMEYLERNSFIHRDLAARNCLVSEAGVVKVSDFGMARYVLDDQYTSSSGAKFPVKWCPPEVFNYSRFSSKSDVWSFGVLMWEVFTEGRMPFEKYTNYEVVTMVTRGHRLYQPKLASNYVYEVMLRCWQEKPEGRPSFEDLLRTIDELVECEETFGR
Procedure, shortened: as §1

T2 sequence (Q06187 whole entry): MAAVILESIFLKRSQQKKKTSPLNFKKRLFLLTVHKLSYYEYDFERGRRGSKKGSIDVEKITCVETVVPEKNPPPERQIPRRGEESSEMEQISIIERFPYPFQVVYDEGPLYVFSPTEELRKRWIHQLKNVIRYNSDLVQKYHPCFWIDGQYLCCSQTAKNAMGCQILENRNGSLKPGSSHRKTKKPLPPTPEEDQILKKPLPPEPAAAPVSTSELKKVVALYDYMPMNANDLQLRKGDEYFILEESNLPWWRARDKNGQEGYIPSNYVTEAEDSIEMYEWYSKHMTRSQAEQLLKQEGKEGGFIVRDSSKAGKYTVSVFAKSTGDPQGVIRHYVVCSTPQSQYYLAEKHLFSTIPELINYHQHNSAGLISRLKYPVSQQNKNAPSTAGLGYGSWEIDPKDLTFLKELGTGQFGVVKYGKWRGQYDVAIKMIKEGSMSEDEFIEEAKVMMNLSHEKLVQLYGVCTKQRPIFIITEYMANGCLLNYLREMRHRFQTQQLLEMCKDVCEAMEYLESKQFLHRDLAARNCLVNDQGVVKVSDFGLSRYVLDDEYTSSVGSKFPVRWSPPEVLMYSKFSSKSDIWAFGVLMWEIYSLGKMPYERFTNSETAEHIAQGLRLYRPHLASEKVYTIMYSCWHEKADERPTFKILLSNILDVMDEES

SMILES	IC50 (panel of kinases) [nM]	IC50 (Btk) [nM]	IC50 (TEC) [nM]
CC(C)(C)c1noc(C(=O)NCc2ccc(-c3ccnc4[nH]nc(N5CCC(N)C5)c34)cc2F)n1 (stereo not drawn) [Example 330, N-({4-[3-(3-aminopyrrolidin-1-yl)-1H-pyrazolo[3,4-b]pyridin-4-yl]-2-fluorophenyl}methyl)-3-tert-butyl-1,2,4-oxadiazole-5-carboxamide]	1230	0.626	1320
CNC1CCN(c2n[nH]c3nccc(-c4ccc(CNC(=O)c5nc(C(C)(C)C)no5)c(F)c4)c23)C1 (stereo not drawn) [Example 333, 3-tert-butyl-N-[(2-fluoro-4-{3-[3-(methylamino)pyrrolidin-1-yl]-1H-pyrazolo[3,4-b]pyridin-4-yl}phenyl)methyl]-1,2,4-oxadiazole-5-carboxamide]	4470	1.26	4360
CN(Cc1ccc(-c2ccnc3[nH]nc(N4CC[C@@H](N)C4)c23)cc1F)C(=O)c1nc(C(C)(C)C)no1 [Example 334, (R)-N-({4-[3-(3-aminopyrrolidin-1-yl)-1H-pyrazolo[3,4-b]pyridin-4-yl]-2-fluorophenyl}methyl)-3-tert-butyl-N-methyl-1,2,4-oxadiazole-5-carboxamide]	1920	1.43	4170
C=CC(=O)N[C@@H]1CCN(c2n[nH]c3nccc(-c4ccc(CN(C)C(=O)c5nc(C(C)(C)C)no5)c(F)c4)c23)C1 [Example 335, 3-tert-butyl-N-{[2-fluoro-4-(3-{(3R)-3-[(prop-2-enoyl)amino]pyrrolidin-1-yl}-1H-pyrazolo[3,4-b]pyridin-4-yl)phenyl]methyl}-N-methyl-1,2,4-oxadiazole-5-carboxamide]	61.3	0.0513	57.7
CNC1CCN(c2n[nH]c3nccc(-c4ccc(CN(C)C(=O)c5nc(C(C)(C)C)no5)c(F)c4)c23)C1 (stereo not drawn) [Example 337, 3-tert-butyl-N-[(2-fluoro-4-{3-[3-(methylamino)pyrrolidin-1-yl]-1H-pyrazolo[3,4-b]pyridin-4-yl}phenyl)methyl]-N-methyl-1,2,4-oxadiazole-5-carboxamide]	5200	2.35	8030

The next compounds have a lower IC50 (panel of kinases) than those just listed; values first:

IC50 (panel of kinases) [nM]	IC50 (Btk) [nM]	IC50 (TEC) [nM]	SMILES
55.7	30.6	253	C=CC(=O)N1CC[C@@H](Nc2n[nH]c3nccc(-c4ccc(CNC(=O)c5cc(-c6ccccc6)on5)c(F)c4)c23)C1 [Example 345, N-{[2-fluoro-4-(3-{[(3R)-1-(prop-2-enoyl)pyrrolidin-3-yl]amino}-1H-pyrazolo[3,4-b]pyridin-4-yl)phenyl]methyl}-5-phenyl-1,2-oxazole-3-carboxamide]
33.2	0.0353	30	C=CC(=O)N[C@@H]1CCN(c2n[nH]c3nccc(-c4ccc(CNC(=O)c5nc(C(C)(C)C)no5)c(F)c4)c23)C1 [Example 331, 3-tert-butyl-N-{[2-fluoro-4-(3-{(3R)-3-[(prop-2-enoyl)amino]pyrrolidin-1-yl}-1H-pyrazolo[3,4-b]pyridin-4-yl)phenyl]methyl}-1,2,4-oxadiazole-5-carboxamide]
28.8	3.77	210	C=CC(=O)N1CC[C@@H](Nc2n[nH]c3nccc(-c4ccc(CNC(=O)c5cc(Cl)on5)c(F)c4)c23)C1 [Example 342, 5-chloro-N-{[2-fluoro-4-(3-{[(3R)-1-(prop-2-enoyl)pyrrolidin-3-yl]amino}-1H-pyrazolo[3,4-b]pyridin-4-yl)phenyl]methyl}-1,2-oxazole-3-carboxamide]
28.3	0.0678	22.7	C=CC(=O)N(C)[C@@H]1CCN(c2n[nH]c3nccc(-c4ccc(CN(C)C(=O)c5nc(C(C)(C)C)no5)c(F)c4)c23)C1 [Example 338, 3-tert-butyl-N-{[2-fluoro-4-(3-{(3R)-3-[methyl(prop-2-enoyl)amino]pyrrolidin-1-yl}-1H-pyrazolo[3,4-b]pyridin-4-yl)phenyl]methyl}-N-methyl-1,2,4-oxadiazole-5-carboxamide]
